Measurements taken from a melting point compilation (Tetko et al.; mined from patent text by program, amines drawn as free bases though some values may be those of a salt).

melting point [°C] | SMILES
268 to 270 | CC(C)CC(=O)Nc1ccc(-c2ccnc3c(C(=O)c4cccs4)cnn23)s1
95 to 115 | CCC(=O)c1cc(C2(c3cccc(NC(=O)COC)c3)N=C(N)N(C)C2=O)cn1CC (stereo not drawn)
118 to 120 | COc1ccc(C=CC2=NNC(C)Cc3cc(OC)c(OC)cc32)c(OC)c1 (stereo not drawn)
200 to 202 | CCCCCCC(=O)Nc1cccc2c1C(=O)N(C1CCC(=O)NC1=O)C2=O (stereo not drawn)
258 to 261 | CCCc1nc2cc3c(cc2[nH]1)NC(=O)C3(C)C(=O)OCC (stereo not drawn)
65 to 66 | CCOC(=O)c1ccccc1NC(=O)CBr
252 | OCc1cccnc1N1CCN(c2nc3cc(C(F)(F)F)cc(Cl)c3[nH]2)CC1
96 | Cc1cc(-n2ccnc2)c2cccc(OCc3c(Cl)ccc(S(=O)(=O)N4CCC[C@H]4C(=O)NCCCN4CCOCC4)c3Cl)c2n1
167 to 169 | NC(=O)c1sc(Oc2ccc3c(c2)OCO3)c2c1CCc1cnoc1-2
166 to 168 | COC(=O)c1cc2c3cccc(Cl)c3n(C)c2s1
99 to 106 | Fc1cc(OC23CC4CC(CC(C4)C2)C3)ccc1N1CCCC1
106 to 110 | CC1CCC(N(CC2CCCC(CN(C(=O)Nc3ccc(N(C)C)cc3)C3CCC(C)CC3)C2)C(=O)Nc2ccc(N(C)C)cc2)CC1 (stereo not drawn)
173 to 174 | Fc1cccc2c(NCCc3ccc4ccccc4c3)ccnc12
188 to 190 | Cn1nc2c(-c3ccc(Cl)cc3Cl)cccc2c1C(=O)NCCO
120 to 121 | COCCCNS(=O)(=O)NC(=O)/C(C)=C/c1ccc(OC(C)C)cc1Oc1ncc(C(F)(F)F)cc1Cl
166 to 168 | Cc1cc(C)nc(NC(=O)NS(=O)(=O)c2ccccc2C(=O)N(C)C)c1
100 to 102 | O=[N+]([O-])CSc1ccc(Oc2ccccc2)cc1
190 to 193 | COc1ccc(S(=O)(=O)Nc2cc(Cl)ccc2/C=C/c2ccncc2)cc1
148 to 149 | CC(=O)Oc1ccc(-c2c(C)c3ccc(F)cc3oc2=O)c(OC(C)=O)c1
236 to 237 | CNC(=O)Nc1snc(C)c1C(=O)OC
219 to 221 | COc1cc2c(Nc3cc(OC)c(Cl)cc3Cl)c(C#N)cnc2cc1F
92 to 93 | Cc1oc(-c2ccccc2)nc1CCC(=O)c1ccc(CCC=O)cc1
> 300 | O=C(O)c1ccc(-c2csc(-c3cccnc3)n2)cc1
> 250 | CCOC(=O)Cn1c(=O)c(=O)[nH]c2ccc3ccc(N)cc3c21

melting point [°C] | SMILES
127 to 129 | CCOCc1nc2c(N)nc(C)c(C)c2n1CCOCCCc1cncnc1
128 to 129 | CCC(C)(C)C(=O)c1ccc(C(=O)O)cc1
88 to 90 | O=C(NCC(Cc1ccccc1)C(=O)Nc1n[nH]c(=S)s1)OCc1ccccc1 (stereo not drawn)
219 to 221 | Nc1nc(-c2ccco2)nc2ccccc12
213 to 216 | Cc1cc(C)n(-c2nc(Nc3ccc4ccccc4c3)c3ccccc3n2)n1
121 to 122 | COC(=O)c1cccc(-c2nc(-c3ccc(F)cc3F)cs2)c1
131 to 132 | c1ccc(COc2cc(OCC3CCCCC3)ccc2CNc2ccncc2)cc1
60 to 80 | O=C(O)c1nn(-c2ccc(Cl)cc2Cl)c(-c2ccc(Cl)cc2)c1CF
148 to 149 | Cc1c2c(c(Oc3ccc(C(C)C)cc3)c(C)c1NC(=O)CC(C)(C)C)OC(C)(C)C2
230 | COc1nc(N)nc(OC)c1C1=NCCN1
275 to 277 | C#CCNC(=O)c1ncn2c1CN(C)C(=O)c1sccc1-2
217 | CC1(C)[C@@H](C(=O)O)[C@@H]1C(=O)O (relative stereo)
222 to 224 | Clc1nc(NCc2cccc(I)c2)c2[nH]cnc2n1
127 | CCc1nc2cc(Cn3ccnc3)ccc2n1C
127 to 131 | Cc1nccn1-c1cc(N)cc(C(F)(F)F)c1
> 290 | COc1cc(-c2nc(N(C)CCN)c3c(C)c(C#N)sc3n2)cc(OC)c1OC
157 to 158 | NC1=NN(c2cccc(Cl)n2)C(c2ccc(Cl)cc2)C1 (stereo not drawn)
224 to 225 | CN1C[C@@H]2C[C@H]1CN2C(=O)N1CCC(c2[nH]nc3c2C(=O)c2c(NC(=O)NN4CCOCC4)cccc2-3)CC1
160 to 161 | CCCCCOC(=O)C(N)C=CCP(=O)(O)O (stereo not drawn)
204 to 205 | CC(=O)Nc1ccc(OC(=O)C2CSC(=O)N2)cc1 (stereo not drawn)
146 to 149 | COc1ccc(-c2nc(CNC(=O)NC(C)C)sc2-c2ccc(OC)cc2)cc1
155 to 157 | Cn1c(C(F)(F)F)ccc(-c2cc(N)c(Cl)cc2F)c1=O
102 to 104 | CN(C)c1cc(Br)cc(Sc2ccc([N+](=O)[O-])cc2)c1
165 to 166 | O=C(O)CCc1cn(Cc2cccc(C(=O)NCc3ccc(C(F)(F)F)cc3)c2)nc1-c1ccccc1

melting point [°C] | SMILES
122 to 123 | Cc1cc(OCCc2nc(-c3ccc(-c4ccccc4)cc3)oc2C)ccc1OC(C)(C)C(=O)O
246 | CC(=O)N1c2ccc(-c3ccc(C(=O)O)cc3)cc2C(Nc2ccccc2)CC1C (stereo not drawn)
63 to 65 | CC(CSSc1nc2ccccc2s1)SSc1nc2ccccc2s1 (stereo not drawn)
206 to 208 | Cc1cc(Oc2ccc3nc(COc4ccc(CC5SC(=O)NC5=O)cc4)n(C)c3c2)cc(C)c1NC(=O)Nc1ccc(C(F)(F)F)cc1 (stereo not drawn)
134 to 135 | CC(=O)c1ccc2c(c1)-c1ccccc1-2
145 to 150 | CC(C)c1cc(OCCN2CCOCC2)cc2c1C(=O)N(COc1cc(=O)n3cccc(OCCCN4CCOCC4)c3n1)S2(=O)=O
80 to 83 | COc1cc2c(cc1O)CN(C(=O)OC(C)(C)C)CC2
115 | Cc1cc(C)c2nnn(C(=O)N3CCOCC3)c2c1
96.2 | O=C(CCCCCCCCCCCCCCCO)OCOC(=O)CCCCCCCCCCCCCCCO
40 to 42 | COc1cc(C=CC(=O)OC2CC3CC(OC(=O)c4cc(OC)c(OC)c(OC)c4)CC2N3C)cc(OC)c1OC (stereo not drawn)
54 to 55 | CCCCCCCCCCCCCCC[C@H]1O[C@@H]1C(=O)OC
145 to 157 | COC(=O)c1cc2cc(OC)c(OCCCl)cc2nc1N
108 to 109 | CC(C)(C)OC(=O)NCCNC(=O)c1cccc(Br)n1
55 to 58 | CCOP(=O)(Cc1ccc(-c2ccccc2)cc1)OCC
144 to 145 | CC(C)c1nn(-c2ccc(C(F)(F)F)cn2)cc1CCCOc1c(C#N)cccc1CC(=O)O
62.5 to 65.5 | CN1c2ccccc2CC1COc1ccc(CC2SC(=O)N(C(c3ccccc3)(c3ccccc3)c3ccccc3)C2=O)cc1 (stereo not drawn)
120 to 121 | CCOC(=O)C(C)=CC=CC(C)=CC=CC=C(C)C=O
141 to 144 | Clc1ccc2ccc(/C=C/c3cccc(CN4CCc5cccc(CCc6nnn[nH]6)c54)c3)nc2c1
218 | COc1cc2c(-c3cc4cccnc4[nH]3)cn(CCN3CCOCC3)c2cc1OC
195 | Cc1cc(C(c2ccc(C(c3ccc(O)c(C)c3)c3ccc(O)c(C)c3)cc2)c2ccc(O)c(C)c2)ccc1O
196 to 198 | O=C(O)c1ccc(C#Cc2ccccc2F)o1
102 to 103 | CCCCOC(=O)[C@H]1CN(c2cc(F)c(N3CCSCC3)c(F)c2)C(=O)O1
109 to 111 | COc1ccccc1N1CCN(Cc2ccccc2)CC1=O
185 to 188 | COc1cc(C(=O)c2ccc([N+](=O)[O-])cc2)c(CC(=O)O)cc1Cl

melting point [°C] | SMILES
114 to 116 | O=C(NC1CCN(CCc2ccc(F)cc2)C1)C12CC3CC(CC(C3)C1)C2 (stereo not drawn)
202 | CCCn1c(C)nn(-c2ccc(N3CCN(c4ccc(OC)cc4)CC3)cc2)c1=O
144 to 146 | COc1cc(-c2ccccc2C)ccc1C(=O)N1Cc2ccc(C(=O)O)n2Cc2ccccc21
90 to 92 | CN(C)S(=O)(=O)c1ccc(Br)cc1
101 to 102 | COC(=O)C(C)Oc1cccc(C=Cc2ccc3ccc(Br)cc3n2)c1 (stereo not drawn)
96 to 99 | CCCC[C@H](NC(=O)CC[C@H](C)CNC(=O)COc1ccccc1)C(=O)CS(=O)Cc1ccco1 (stereo partly drawn)
62 to 63 | CCN(Cc1ccc(Cl)nc1)C(=C[N+](=O)[O-])N(C)C(=O)OCOC(=O)c1ccccc1
262 | Cc1ccnc(NC(=O)c2nc3ccccc3[nH]2)c1
75 to 76 | COc1ccc(-c2nc(SCC=O)sc2-c2ccc(OC)cc2)cc1
209 to 214 | Cc1nc2cc(NC(=O)NC34CC5CC(CC(C5)C3)C4)ccc2s1
93 to 95 | CCCCOC(=O)NCCc1ccc(OCC(O)CNC(C)C)nc1 (stereo not drawn)
130 | COc1ccccc1-n1c(=O)[nH]c2cccnc21
209 to 210 | O=C(CBr)c1ccc2oc3ccc(C(=O)CBr)cc3c(=O)c2c1
245 to 247 | O=C1CN(Cc2ccc(COc3cccc4c3CN(C3CCC(=O)NC3=O)C4=O)cc2)CCN1 (stereo not drawn)
95 to 97 | C=CC(=O)OC12Oc3cc(C(C)C)ccc3C1(O)C(=O)c1ccccc12 (stereo not drawn)
60 to 62 | COC1CCN2C(=O)c3cccc(N)c3C2C1 (stereo not drawn)
166 to 168 | CCC(=O)NC(C)(C(=O)NS(=O)(=O)c1ccc(C)cc1)C(C)C (stereo not drawn)
195 to 197 | CN(C)c1ccc(C2(c3ccc(N(C)C)cc3N(C)C)OC(=O)c3c(Cl)c(Cl)c(Cl)c(Cl)c32)c(N(C)C)c1
183 to 184 | CC1(C)CC(=O)CC(=O)N1
168 to 170 | CCCc1ccc(C(=O)Nc2ccc3c(c2)CCCC3=O)cc1
88 to 89 | ClCc1csc(/C=C/c2ccccc2)n1

SMILES | melting point [°C]
CC(=O)N1CCc2cc(CC(C)N)cc(C#N)c21 (stereo not drawn) | 94 to 96
CC1(CCCn2cc(C=O)c3ccccc32)OCCO1 | 52 to 55
CS(=O)(=O)c1cc([N+](=O)[O-])c(C(N)=O)cc1N1CC1 | 222 to 224
O=C(NC(CC12CC3CC(CC(C3)C1)C2)NC(=N[N+](=O)[O-])Nc1cccnc1)c1ccc(Cl)cc1 (stereo not drawn) | 219 to 220
C=CCN1C2CCC3C1CCC2N3C(c1ccc(C(=O)N2CCCC2)cc1)c1cccc(O)c1 (stereo not drawn) | 140 to 142
